In the supplement of paper PMC10290057:
Where a name gives a salt, the structure may show the parent alone.

Experiments:
HCT116 [1] = test: AC50 cell viability (CellTiter-Glo); higher = less potent; conditions: 48 h
HCT116 [2] = test: efficacy (fitted maximal change in viability relative to DMSO control); higher = less cytotoxic (negative = loss of viability); conditions: 48 h
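Wherever AC50 cell viability (CellTiter-Glo) is given: HCT116 colorectal carcinoma cells screened at five concentrations per compound, luminescent viability scaled between DMSO wells and empty wells on each plate, curves fitted per compound.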
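Wherever efficacy (fitted maximal change in viability relative to DMSO control) is given: Luminescence-based viability readout, five doses per compound, normalized against on-plate DMSO and empty-well controls, followed by dose-response curve fitting for every drug.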

Compound | AC50 cell viability (HCT116 [1]) [µM] | efficacy (HCT116 [2]) [%]
O=C1\C=C(OC2=C1SC=C2C3=CC=C4OCCOC4=C3)\N5CCOCC5 [SF-2523] | 3.72 | -69.9
Cc1ccc(NC(=O)NCc2ccc3c(c2)CN(C2CCC(=O)NC2=O)C3=O)cc1Cl (stereo unspecified) [CC-885] | 0.0934 | -42.4
Nc1ccc(C(=O)c2cc3c(ccc4ccccc43)[nH]2)cc1 [IPFK2] | 4.81 | -102
O=c1[nH]c2ccccc2n1C1CCN(Cc2ccc(-c3nc4cc5nc[nH]c5cc4nc3-c3ccccc3)cc2)CC1 [AKT Inhibitor VIII] | 16.6 | -84.5
COc1cc2c(cc1-c1c(C)noc1C)ncc1[nH]c(=O)n([C@H](C)c3ccccn3)c12 [I-BET151] | 1.32 | -77.4
N#Cc1cc2cc(CN3CCC(Nc4ncnc5sc(CC(F)(F)F)cc45)CC3)c(O)cc2n1Cc1cn[nH]c1 [MI-538] | 13.2 | -111
Nc1ccc(C(=O)Nc2cccc(-c3nc(N4CCOCC4)c4oc5ncccc5c4n3)c2)cn1 | 5.9 | -88.1
CN(C)c1cc2c(cc1Sc1nc3c(N)nccc3n1CCNCC(C)(C)C)OCO2 [CUDC-305] | 0.468 | -66.5
CCN(CC)CCCCNc1nc2cc(Cl)c(Cl)cc2nc1-c1ccc(-c2cccs2)s1 | 23.5 | -97.7
O=C(c1c(F)ccc(N[S+](=O)([O-])N2CC[C@@H](F)C2)c1F)c1c[nH]c2ncc(-c3cnc(C4CC4)nc3)cc12 [PLX-8394] | 13.2 | -51.7
C[C@@H](OC[C@@]1(c2ccccc2)CC[C@]2(CCC(=O)N2)CN1)c1cc(C(F)(F)F)cc(C(F)(F)F)c1 [Rolapitant] | 13.2 | -111
CN1CCN(CC1)C2=CC=C(NC3=NC=C4\C=C(\C#N)C(=O)N(C5CCCC5)C4=N3)C=C2 | 1.32 | -77.1
Cc1[nH]c(/C=C2\C(=O)Nc3ccc([S+](=O)([O-])Cc4c(Cl)cccc4Cl)cc32)c(C)c1C(=O)N1CCC[C@@H]1CN1CCCC1 | 7.42 | -92
Cc1ccc(Nc2nccc(N(C)c3ccc4c(C)n(C)nc4c3)n2)cc1[S+](N)(=O)[O-] [Pazopanib] | 5.25 | -51.5
O=C(Nc1cccc(Br)c1)c1cccc([S+](=O)([O-])N2CCCCCC2)c1 [Ak-7] | 14.8 | -59.7
CC(C)C[C@H](NC(=O)c1cc2ccccc2s1)C(=O)N1CCN(C(=O)[C@H](CO)N[S+](=O)([O-])c2ccc(Cl)cc2Cl)CC1 | 16.6 | -76.8
COC1=CC=C2/C3=N/CCN3\C(=N/C2=C1OC)NC(=O)C4=CC=CN=C4 [PIK-90] | 0.263 | -37.1
CCNc1cc(NC2CCC(O)CC2)nc(Nc2ccc3c(ccn3Cc3ccccc3)c2)n1 (stereo unspecified) [Cdk4/6 Inhibitor IV] | 20.9 | -51.1
C[C@@H](C(=O)Nc1ccc(Cl)cc1)[C@H]1CC[C@@H](c2ccnc3ccc(F)cc32)CC1 | 18.6 | -47.3
COC(=O)Nc1nc2cc(Sc3ccccc3)ccc2[nH]1 [Fenbendazole] | 1.05 | -79.7
CC(=O)Oc1ccccc1C(=O)Nc1ncc([N+](=O)[O-])s1 [Nitazoxanide] | 23.5 | -80.3
COc1cc(N2CCN(C)CC2)ccc1Nc1nccc(-c2cn(C)c3cnccc23)n1 [AZ-191] | 18.6 | -88.4

Compound | AC50 cell viability (HCT116 [1]) [µM] | efficacy (HCT116 [2]) [%]
CC[S+]([O-])(=O)NC1=CC(=C(OC2=C(F)C=C(F)C=C2)C=C1)\C3=C\N(C)C(=O)C4=C3C=C[NH]4 [Mivebresib (ABBV-075)] | 0.0525 | -97.5
Cc1ncc(NC(=O)c2cccc(C(F)(F)F)c2)cc1-c1cnc(OC2CCOCC2)c(N2CCOCC2)c1 [RAF-709] | 0.525 | -84.5
Cn1c(=O)n(-c2ccc(C(C)(C)C#N)cc2)c2c3cc(-c4cnc5ccccc5c4)ccc3ncc21 [BEZ-235] | 0.135 | -60.5
OC1=CC2=C(C(=C1)O)C(=O)\C=C(/O2)C3=CC=CC=C3 [Chrysine] | 20.9 | -49.1
OCCN1CCN(CCCN2c3ccccc3Sc3ccc(C(F)(F)F)cc32)CC1 [Fluphenazine hydrochloride] | 7.42 | -94.5
Nc1n[n+]([O-])c2ccccc2[n+]1[O-] [Tirapazamine] | 13.2 | -30.4
CN1CCN(CC1)C2=NC3=C(C=CC=C3)C(=N2)C/4=C(/C(=O)NC4=O)C5=C[NH]C6=C5C=CC=C6 [Sotrastaurin] | 23.5 | -83.5
Cc1cc(C(=O)N2CCN(c3cccc(Cl)c3)CC2)n(-c2ccccc2)n1 [XRP-44X] | 2.95 | -62.8
CN1CCN(Cc2ccc(NC(=O)Nc3ccc(Oc4cc(NC(=O)C5CC5)ncn4)cc3)cc2C(F)(F)F)CC1 [WS-3] | 0.0934 | -73.9
COc1cccc(-c2cc(F)ccc2C2Cc3nc(N)nc(C)c3C(=O)N2)n1 (stereo unspecified) [HSP-990] | 0.0525 | -64.3
C/C(=N\NC(=O)c1cccc([S+](=O)([O-])N2CCOCC2)c1)c1cc(Cl)ccc1O [SP2509] | 1.86 | -69.5
O=C(Nc1cc(C(F)(F)F)cc(C(F)(F)F)c1)c1cc(Cl)ccc1O [IMD-0354] | 0.833 | -88.7
CN(C)C1=CC=C(C=C1)C(C2=CC=C(C=C2)N(C)C)=C/3\C=C/C(/C=C3)=[N+](C)C [Methylrosaniline chloride] | 0.833 | -84.9
CO[C@@H]1[C@@H](O)[C@H](O)[C@@H](n2c3c(Cl)cccc3c3c4c(c5c6cccc(Cl)c6[nH]c5c32)C(=O)NC4=O)O[C@H]1CO [Rebeccamycin] | 0.934 | -88.9
CN(C)CCOc1ccc(/C(=C(/CCCl)c2ccccc2)c2ccccc2)cc1 [Toremifene citrate] | 20.9 | -99.7
COc1cc(N2CCN(C)CC2)ccc1Nc1ncc2c(n1)N(C)c1ccccc1C(=O)N2C [XMD17-109 (ERK5-IN-1)] | 9.34 | -89.1
CCCCc1nc2cc(/C=C/C(=O)NO)ccc2n1CCN(CC)CC [Pracinostat] | 0.372 | -86.8
C[C@](O)(COc1ccc(C#N)cc1)C(=O)Nc1ccc(C#N)c(C(F)(F)F)c1 [Ostarine] | 20.9 | -91.5
CN(C)CCC=C1C2=C(C=CC=C2)\C=C/C3=C1C=CC=C3 [Cyclobenzaprine hydrochloride] | 18.6 | -92.3
CN1C/C=C/CCOc2cccc(c2)-c2ccnc(n2)Nc2cccc(c2)C1 [SB-1317] | 0.059 | -70.2
CC(C)(O)c1cc2nc(-c3cnc(N)nc3)nc(N3CCOCC3)c2s1 [GNE-493] | 0.833 | -55.2
